The source made the active and inactive calls.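 How the source made its calls: active means compounds whose mean IC50 is below 20 µM; inactive means the rest.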
Target: Apelin receptor (Homo sapiens) (UniProt P35414)
Experiment: blockers of apelin-13-driven APJ signaling – cell-based, CHO-K1 AGTRL-1, PathHunter luminescence, set 6, SAR follow-up (AID 504455)
Conditions: CHO-K1 APJ beta-arrestin PathHunter, apelin-13 antagonism

Apelin receptor (Homo sapiens), sequence (P35414 whole entry, looked up): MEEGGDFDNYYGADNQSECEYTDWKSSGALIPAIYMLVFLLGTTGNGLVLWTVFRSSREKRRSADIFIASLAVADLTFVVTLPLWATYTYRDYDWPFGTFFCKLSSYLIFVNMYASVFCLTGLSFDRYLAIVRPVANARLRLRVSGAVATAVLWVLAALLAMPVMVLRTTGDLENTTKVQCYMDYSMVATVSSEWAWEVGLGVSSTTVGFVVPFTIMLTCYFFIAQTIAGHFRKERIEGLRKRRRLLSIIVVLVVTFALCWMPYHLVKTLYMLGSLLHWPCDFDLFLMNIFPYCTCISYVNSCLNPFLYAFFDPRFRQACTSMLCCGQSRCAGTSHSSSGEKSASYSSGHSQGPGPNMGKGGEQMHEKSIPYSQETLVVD

Row | SMILES | IC50
1 | Cc1ccnc(SCc2cc(=O)c(OC(=O)c3ccc(C#N)cc3)co2)n1 | 11.5 µM
2 | Cc1ccnc(SCc2cc(=O)c(OC(=O)c3ccc([N+](=O)[O-])cc3)co2)n1 | 3.11 µM
3 | Cc1ccc(C(=O)Oc2coc(CSc3ncccn3)cc2=O)cc1[N+](=O)[O-] | 10.9 µM
4 | Cc1ccnc(SCc2cc(=O)c(OC(=O)c3ccccc3)co2)n1 | > 79 µM (inactive)
5 | N#Cc1ccc(C(=O)Oc2coc(CSc3ncccn3)cc2=O)cc1 | 9.77 µM

Reference: PubChem BioAssay AID504455 (Sanford-Burnham Center for Chemical Genomics, 2011)
